According to the supplement of paper PMC10307832:

Tests used:
Experiment in all cases: relative viability (nuclei count vs DMSO), 5 days (fraction); higher = more cells survive
ALW-II-49-7 + Dasatinib = compound: Cc1ccc(C(=O)Nc2cccc(C(F)(F)F)c2)cc1Nc1cncc(C(N)=O)c1 [ALW-II-49-7] + Cc1nc(Nc2ncc(C(=O)Nc3c(C)cccc3Cl)s2)cc(N2CCN(CCO)CC2)n1 [Dasatinib] (partner 0.075 µM)
Outline: (§1)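 Lung cancer cell lines in 1536-well plates got either a single drug or a fixed anchor-drug dose together with five library-drug doses (not always all listed) in √10 steps, by pin tool, on the day after seeding. Nuclei were counted after 5 days, and relative viability is the treated-to-vehicle ratio of nuclei counts. Values are medians of duplicate plates.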

Dasatinib + Pictilisib = compound: Cc1nc(Nc2ncc(C(=O)Nc3c(C)cccc3Cl)s2)cc(N2CCN(CCO)CC2)n1 [Dasatinib] + CS(=O)(=O)N1CCN(Cc2cc3nc(-c4cccc5[nH]ncc45)nc(N4CCOCC4)c3s2)CC1 [Pictilisib] (partner 1 µM)
Outline: as §1

XMD13-2 + AZD7762 = compound: C1CC1C(=O)NC2=NNC3=C2C=CC(=C3)C4=CC(=CC=C4)C(=O)NC5CC5 [XMD13-2] + NC(=O)Nc1cc(-c2cccc(F)c2)sc1C(=O)N[C@H]1CCCNC1 [AZD7762] (partner 0.2 µM)
Outline: as §1

XMD13-2 + Vorinostat = compound: C1CC1C(=O)NC2=NNC3=C2C=CC(=C3)C4=CC(=CC=C4)C(=O)NC5CC5 [XMD13-2] + O=C(CCCCCCC(=O)Nc1ccccc1)NO [Vorinostat] (partner 1 µM)
Outline: as §1

| Cell Line | relative viability (ALW-II-49-7 + Dasatinib; first compound 0.08 µM) | relative viability (ALW-II-49-7 + Dasatinib; first compound 0.253 µM) | relative viability (ALW-II-49-7 + Dasatinib; first compound 0.8 µM) | relative viability (ALW-II-49-7 + Dasatinib; first compound 2.53 µM) | relative viability (ALW-II-49-7 + Dasatinib; first compound 8 µM) | relative viability (Dasatinib + Pictilisib; first compound 0.005 µM) | relative viability (Dasatinib + Pictilisib; first compound 0.01581 µM) | relative viability (Dasatinib + Pictilisib; first compound 0.05 µM) | relative viability (Dasatinib + Pictilisib; first compound 0.1581 µM) | relative viability (Dasatinib + Pictilisib; first compound 0.5 µM) | relative viability (XMD13-2 + AZD7762; first compound 0.05 µM) | relative viability (XMD13-2 + AZD7762; first compound 0.1581 µM) | relative viability (XMD13-2 + AZD7762; first compound 0.5 µM) | relative viability (XMD13-2 + AZD7762; first compound 1.581 µM) | relative viability (XMD13-2 + AZD7762; first compound 5 µM) | relative viability (XMD13-2 + Vorinostat; first compound 0.05 µM) | relative viability (XMD13-2 + Vorinostat; first compound 0.1581 µM) | relative viability (XMD13-2 + Vorinostat; first compound 0.5 µM) | relative viability (XMD13-2 + Vorinostat; first compound 1.581 µM) | relative viability (XMD13-2 + Vorinostat; first compound 5 µM) |
| --- | --- | --- | --- | --- | --- | --- | --- | --- | --- | --- | --- | --- | --- | --- | --- | --- | --- | --- | --- | --- |
| RERF-LC-KJ | 0.827 | 0.815 | 0.951 | 0.665 | 0.741 | 0.543 | 0.518 | 0.53 | 0.398 | 0.403 | 1.07 | 0.874 | 1.22 | 0.922 | 0.956 | 0.783 | 0.653 | 0.686 | 0.616 | 0.806 |
| NCI-H1755 | 0.397 | 0.442 | 0.459 | 0.408 | 0.308 | 0.317 | 0.21 | 0.191 | 0.182 | 0.139 | 0.419 | 0.431 | 0.46 | 0.449 | 0.413 | 0.827 | 0.685 | 0.875 | 0.926 | 0.795 |
| NCI-H2126 | 0.534 | 0.638 | 0.586 | 0.52 | 0.457 | 0.512 | 0.446 | 0.443 | 0.387 | 0.288 | 1.1 | 1.04 | 0.98 | 1.04 | 0.996 | 0.849 | 0.731 | 0.745 | 0.749 | 0.735 |
| EPLC-272H | 0.283 |  | 0.26 | 0.345 | 0.375 | 0.312 | 0.354 | 0.276 | 0.221 | 0.147 | 0.294 | 0.237 | 0.0561 | 0.156 | 0.231 | 0.474 | 0.473 | 0.374 | 0.33 | 0.0998 |
| NCI-H1975 | 0.298 | 0.451 | 0.323 | 0.349 | 0.34 | 0.315 | 0.225 | 0.207 | 0.0981 | 0.201 | 0.857 | 0.869 | 0.735 | 0.664 | 0.799 | 0.795 | 0.636 | 0.662 | 0.931 | 0.801 |
| NCI-H3122 | 0.83 | 0.81 | 0.737 | 0.891 | 0.834 | 0.704 | 0.753 | 0.755 | 0.614 | 0.445 | 1.01 | 0.973 | 1.1 | 1 | 0.899 | 1.04 | 0.987 | 1.1 | 0.995 | 0.941 |
| BEN | 0.378 | 0.341 | 0.348 | 0.325 | 0.305 | 0.446 | 0.37 | 0.323 | 0.297 | 0.294 | 0.799 | 0.777 | 0.638 | 0.594 | 0.729 | 0.625 | 0.543 | 0.585 | 0.574 | 0.487 |
| NCI-H1915 | 0.372 | 0.349 | 0.339 | 0.326 | 0.292 | 0.936 | 0.84 | 0.763 | 0.463 | 0.231 | 0.675 | 0.774 | 0.708 | 0.696 | 0.646 | 0.582 | 0.486 | 0.5 | 0.486 | 0.474 |
| NCI-H650 | 0.42 | 0.518 | 0.421 | 0.482 | 0.341 | 0.862 | 0.794 | 0.898 | 0.497 | 0.345 | 1.22 | 1.02 | 1.14 | 0.847 | 1.43 | 0.526 | 0.416 | 0.46 | 0.348 | 0.497 |
| NCI-H460 | 0.492 | 0.583 | 0.563 | 0.423 | 0.507 | 0.195 | 0.102 | 0.208 | 0.189 | 0.104 | 0.708 | 0.751 | 0.633 | 0.66 | 0.683 | 1 | 0.723 | 0.828 | 0.696 | 0.766 |
| LCLC-103H | 0.392 | 0.429 | 0.393 | 0.419 | 0.411 | 0.665 | 0.514 | 0.515 | 0.286 | 0.17 | 0.774 | 0.778 | 0.768 | 0.818 | 0.85 | 0.891 | 0.83 | 0.817 | 0.696 | 0.751 |
| HCC-827 | 0.326 | 0.331 | 0.294 | 0.232 | 0.239 | 1.23 | 0.907 | 0.84 | 0.429 | 0.126 | 0.199 | 0.22 | 0.207 | 0.202 | 0.224 | 0.838 | 0.937 | 0.956 | 0.765 | 1.06 |
| NCI-H322M | 0.246 | 0.256 | 0.261 | 0.251 | 0.231 | 0.433 | 0.408 | 0.37 | 0.245 | 0.171 | 0.461 | 0.602 | 0.543 |  | 0.653 | 0.927 | 0.984 | 0.914 |  | 1.05 |
| NCI-H1666 | 0.845 | 0.81 | 0.794 | 0.767 | 0.835 | 0.546 | 0.442 | 0.522 | 0.295 | 0.316 | 0.849 | 0.89 | 0.927 | 0.81 | 0.807 | 0.999 | 1.02 | 1.09 | 1.03 | 1 |
| NCI-H1793 | 0.398 | 0.387 | 0.296 | 0.348 | 0.406 | 0.316 | 0.395 | 0.29 | 0.311 | 0.31 | 0.707 | 0.662 | 0.468 | 0.524 | 0.72 | 1.03 | 0.602 | 0.746 | 0.666 | 0.928 |
| NCI-H1437 | 0.414 | 0.404 | 0.425 | 0.309 | 0.333 | 0.543 | 0.408 | 0.37 | 0.31 | 0.222 | 1.24 | 1.14 | 1.18 | 1.09 | 1.17 | 0.879 | 0.815 | 0.756 | 0.793 | 0.786 |
